# Measured values as given in patent US8420692B1, “Heterocyclic and carbonate derivatives of NDGA and their use as new anti-HIV and anti-cancer agents” (The Johns Hopkins University, priority 2006, dated 2013).
# Where a name gives a salt, the structure may show the parent alone.
# What was measured:
# [1] = system: human liver cancer line Hep3B; assay: MTT-based cytotoxicity / proliferation assay, Hep3B; format: cell-based
# Method: (§1) The cytotoxicity of P4N against Vero cells and human cancer cells HEP3B, HT29 and MCF7 was analyzed using an MTT [3-(4,5-dimethylthiazol-2-yl)-2,5-diphenyltetrazolium bromide]-based assay (Sigma). The absorbance of OD570 was a measurement of formazon crystals solubilized in DMSO from metabolically active cells. Procedures were discussed in Huang R C C, et al. in Antiviral Res 58, 57-64 2003.^10
# (§2) We have previously shown that M4N arrests tumor cells growth at G2-M phase of the cell cycle by reducing the level of Cdc2 protein and kinase activity,^17,18 and induces apoptosis by suppressing survivin gene expression and protein stability and activating the mitochondrial apoptosis pathway.^17 M4N is able to reverse the multidrug resistance by inhibiting the Sp1-regulated MDR1 gene expression and preventing the synthesis of p-glycoprotein (Pgp).^24 To investigate the effect of water soluble NDGA derivative P4N on growth of the transformed cells, four cell lines, Vero cell (African green monkey kidney cells), human liver cancer line Hep3B, colon cancer cell line HT29, and human breast cancer line MCF-7 were selected for testing. The Vero cell line is aneuploid.
# [2] = system: colon cancer cell line HT29; assay: MTT-based cytotoxicity / proliferation assay, HT29; format: cell-based, human
# Method: as §1, §2
# [3] = system: human breast cancer line MCF-7; assay: MTT-based cytotoxicity / proliferation assay, MCF-7; format: cell-based
# Method: as §1, §2
# HSV-2 = assay: Efficacy against HSV-2 in a mouse vaginal model; format: in vivo; conditions: for Toxicity in animals: female mice treated locally with 10 mM
# Method: The efficacies of P4N against HSV-2 in a mouse vaginal model system have been examined. Progestin treated female CF-1 mice (10 per group) were infected with HSV-2 in the absence or presence of P4N (in PBS). At the end of three days, the vaginal lavages were collected from the washings of the vaginal regions. The status of the vaginal HSV-2 infection and replication were examined by their cytopathic effects on cultured human foreskin fibroblast cells. Monitoring and scoring were carried out by three persons independently. […] At 10 mM concentration only 2 of 10 mice were weakly infected.
# [4] = system: Sp1 cognate binding site DNA (dsOLIGOsp); assay: 1D NMR titration of the Sp1 cognate binding site; conditions: FIG. 3
# Text: FIG. 3: 1D 1H NMR spectra of free DNA, free P4N and 1:1 molar ratio DNA:P4N. The resonances with the largest chemical shift perturbation are indicated
# The titration of the Sp1 cognate binding site with P4N was further studied by 1D NMR (FIG. 3). […] Changes in the chemical shifts and the line-widths of both the DNA and the drug indicate structural perturbations of the DNA upon titration with P4N. […] This is reflected in the split of the well resolved resonances of the carbon-nitrogen ring CH2 protons (which lie in an area of the spectrum that is free of DNA peaks). As shown on both FIG. 3 and FIG. 4 the largest perturbations of the P4N chemical shifts induced upon binding are those of the CH3 protons, aromatic protons and the carbon-nitrogen ring CH2 protons. […] Binding of Sp1 to dsOLIGOsp and binding of P4N to dsOLIGOsp are both reversible as shown in a competitive band-shift analysis (FIG. 6).
# COS cells = assay: Growth inhibition of untransfected COS cells; format: cell-based; conditions: ≦1 μM, FIG. 9
# Method: FIG. 9: Inhibition of HIV Tat-Regulated transactivation by Compound 5b P4N. The COS cells were co-transfected with a Tat-producing plasmid and a plasmid containing the HIV LTR linked to the SeAP reporter gene. Transfected cells were treated with various concentrations of 5b P4N. After 48 h, aliquots of media were removed and analysis of SeAP activity was performed. The percent inhibition of SeAP activity by 5b P4N ? was calculated in comparison with the percent of growth inhibition of untransfected COS cells by P4N ?
structure (smiles),measurement,setting,value
"C[C@H](Cc1ccc(OCCN2CCCCC2)c(OCCN2CCCCC2)c1)[C@@H](C)Cc1ccc(OCCN2CCCCC2)c(OCCN2CCCCC2)c1 [Compound 5b, meso-2,3-Dimethyl-1,4-bis(3,4-[2-(piperidino)ethoxyphenyl])butane Tetrakishydrochloride Salt]",IC50,"[1]; 48 hrs, 37° C.",2000 nM
same,Concentration that effectively eliminates growth of tumor cells,"[1]; Hep3B, FIG. 11",< 5 µM
same,IC50,"[2]; 48 hrs, 37° C., read-out: IC50, proliferation of HT-29",800 nM
same,Concentration that effectively eliminates growth of tumor cells,"[2]; HT29, FIG. 11",< 5 µM
same,IC50,"[3]; 48 hrs, 37° C.",1400 nM
same,Concentration that effectively eliminates growth of tumor cells,"[3]; MCF-7, FIG. 11",< 5 µM
same,Mice weakly infected with HSV-2,"HSV-2; 10 mM P4N in PBS, local, female CF-1 mice, 10 per group, day 3 vaginal lavage",2 of 10
same,Average scale of vaginal HSV-2 infection (cytopathic effect score),"HSV-2; 10 mM P4N, 2.43 in the absence of P4N",0.19
same,Toxicity in animals,HSV-2,no apparent sign of toxicity
same,Toxicity in animals,HSV-2; listed as P4N,little or no toxicity
same,Binding to the DNA (1D NMR titration),[4],micro-molar range
same,Effect on the growth of the cos cells,COS cells,no effect
